Laboratory results as given in US9790235B2, “MK2 inhibitors and uses thereof” (Celgene CAR LLC, priority 2014, dated 2017).

Columns and labels:
[1] = molecular target: p38α activated, mitogen-activated protein kinase-activated protein kinase 2 (MAPKAP-K2 or MK2) enzyme (Homo sapiens (Human), UniProt P49137); assay: MK2 Omnia continuous-read kinase assay for compound potency; assay type: biochemical; conditions: [MK-2]=0.4 nM, [ATP]=10 μM, [ST3-Sox]=10 μM; read-out: MK2 IC50
Outline: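 Continuous fluorescence read (λex360/λem485) with 0.4 nM p38α-activated MK2, 10 μM ATP (apparent KM) and 10 μM S/T3-Sox peptide, monitored over 120 min at room temperature. Background-corrected initial slopes gave % inhibition and IC50 with Hill slope; exponential fits gave kobs, yielding apparent kinact/KI.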

[2] = molecular target: T1, MK2 (Homo sapiens (Human), UniProt P49137); assay: MK2 cellular assay, total and phospho-Hsp27 (Serine 78) by MSD ELISA (Thp1); assay type: cell-based; conditions: Thp-1 cells, 1 hour compound, 50 ng/mL LPS 45 minutes, p-HSP27 (Ser78)/total HSP27; read-out: pHSP27 signaling EC50
Outline: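 PMA-differentiated (10 ng/mL, 72 h) Thp-1 cells were pretreated with compound (top 3000 nM) for 1 h at 37 °C, then stimulated with 50 ng/mL LPS for 45 min. Lysate phospho-Hsp27 (Ser78) and total Hsp27 were read by MSD electrochemiluminescence ELISA, and the value is expressed as percent phospho/total signal per well.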

[3] = molecular target: T1, MK2; conditions: percentage of modified protein after 60 minutes at room temperature, 10-fold excess of compound; MALDI (I-1 to I-50), magnetic bead MALDI (I-51 to I-129)
Method: Aliquots of the resulting mixture (6 μL each) were diluted with 0.2% trifluoroacetic acid (TFA, 10 μL) prior to micro C4 ZipTipping directly onto the MALDI target using sinapinic acid as the desorption matrix (10 mg/ml in 0.1% TFA:acetonitrile 50:50, v/v). The centroid mass of the target protein in the control sample was compared with the centroid mass of the target protein incubated with compound. A shift in the centroid mass of the treated protein compared to the untreated protein was divided by the molecular weight of the compound. This number corresponds to the percentage of modified protein (a measure of the proportion of total target protein covalently bound to the test compound) after one hour incubation.
3 μL of magnetic Ni-NTA beads were added to the 6 μL aliquots of sample, washed, eluted with 0.2% trifluoroacetic acid (TFA, 2 μL), and spotted directly onto the MALDI target using sinapinic acid as the desorption matrix (10 mg/ml in 0.1% TFA:acetonitrile 50:50, v/v). The centroid mass of the target protein in the control sample was compared with the centroid mass of the target protein incubated with compound. A shift in the centroid mass of the treated protein compared to the untreated protein was divided by the molecular weight of the compound. This number corresponds to the percentage of modified protein (a measure of the proportion of total target protein covalently bound to the test compound) after one hour incubation.
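Wherever Mass Modification is given: covalent binding read from centroid mass shift of compound-treated versus untreated intact MK2, shift divided by compound molecular weight, giving fraction of total protein bound.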

T1 sequence (P49137 whole entry): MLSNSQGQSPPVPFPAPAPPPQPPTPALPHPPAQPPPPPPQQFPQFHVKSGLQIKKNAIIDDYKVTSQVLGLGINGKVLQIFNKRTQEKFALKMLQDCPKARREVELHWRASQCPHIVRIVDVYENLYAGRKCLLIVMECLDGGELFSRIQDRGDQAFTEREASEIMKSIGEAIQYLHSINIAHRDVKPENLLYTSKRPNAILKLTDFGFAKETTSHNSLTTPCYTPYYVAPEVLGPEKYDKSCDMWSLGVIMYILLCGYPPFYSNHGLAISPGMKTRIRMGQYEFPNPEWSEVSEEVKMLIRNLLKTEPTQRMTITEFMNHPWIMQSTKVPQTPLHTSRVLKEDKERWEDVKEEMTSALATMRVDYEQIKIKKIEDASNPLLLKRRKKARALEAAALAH
Sequence of p38α activated, mitogen-activated protein kinase-activated protein kinase 2 (MAPKAP-K2 or MK2) enzyme (P49137 whole entry): as above

IC50 [1]: < 100 nM
EC50 [2]: < 100 nM
Mass Modification [3]: E (mass modification of ≧70%)
Structure (SMILES): C[C@@H]1CNc2c(sc3ccc4nc(Oc5nc(Cl)ncc5CN5CCC(OCCF)CC5)ccc4c23)C(=O)N1 [I-131, (R)-3-((2-chloro-5-((4-(2-fluoroethoxy)piperidin-1-yl)methyl)pyrimidin-4-yl)oxy)-10-methyl-9,10,11,12-tetrahydro-8H-[1,4]diazepino[5′,6′:4,5]thieno[3,2-f]quinolin-8-one]
